Source: patent US11096985B2, “Antimicrobial peptides, their variants and uses” (priority 2015, dated 2021)
Where a SMILES comes first, the peptide text is derived from it. [ ]: non-standard residue; d: D form.

Experiments:
[1] = tested on: clinical strains of C. glabrata; assay: MIC, clinical yeast strains, C. glabrata; assay type: cell-based, Candida glabrata; design: unit: μg/ml
Method in brief: (§1)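 By broth microdilution, Chain peptides from 0.125 to 128 μg/ml were tested against clinical strains adjusted to 5.0×10^5 cfu/ml, with bacteria in MH broth and yeasts in Potato dextrose broth. After 20–24 h at 37 °C, the lowest peptide concentration without visible growth was scored as MIC.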

[2] = tested on: clinical strains of C. parapsilosis; assay: MIC, clinical yeast strains, C. parapsilosis; assay type: cell-based, Candida parapsilosis; design: unit: μg/ml
Method in brief: as §1

[3] = tested on: clinical strains of Escherichia coli; assay: MIC, clinical strains of E. coli; assay type: cell-based; design: unit: μg/ml; conditions: microdilution, Muller Hinton broth-cation adjusted, 0.02% BSA, 0.2% acetic acid
Method in brief: as §1

[4] = tested on: clinical strains of Candida albicans; assay: MIC, clinical yeast strains, Candida albicans; assay type: cell-based; design: unit: μg/ml
Method in brief: as §1

[5] = tested on: clinical strains of Serratia marcescens; assay: MIC, clinical strains of Serratia marcescens; assay type: cell-based; design: unit: µg/mL; conditions: microdilution, Muller Hinton broth-cation adjusted, 0.02% BSA, 0.2% acetic acid
Method in brief: as §1

[6] = tested on: clinical strains of Enterobacter cloacae; assay: MIC, clinical strains of Enterobacter cloacae; assay type: cell-based; design: unit: μg/ml; conditions: microdilution, Muller Hinton broth-cation adjusted, 0.02% BSA, 0.2% acetic acid
Method in brief: as §1

[7] = tested on: clinical strains of Proteus mirabilis; assay: MIC, clinical strains of Proteus mirabilis; assay type: cell-based; design: unit: µg/mL; conditions: microdilution, Muller Hinton broth-cation adjusted, 0.02% BSA, 0.2% acetic acid
Method in brief: as §1

[8] = tested on: clinical strains of Acinetobacter baumannii; assay: MIC, clinical strains of Acinetobacter baumannii; assay type: cell-based; conditions: microdilution, Muller Hinton broth-cation adjusted, 0.02% BSA, 0.2% acetic acid
Method in brief: as §1

[9] = tested on: clinical strains of Streptococcus pneumoniae; assay: MIC, clinical strains of Streptococcus pneumoniae; assay type: cell-based; design: unit: µg/mL; conditions: microdilution, Muller Hinton broth-cation adjusted, 0.02% BSA, 0.2% acetic acid
Method in brief: as §1

[10] = tested on: clinical strains of Acinetobacter johnsonii; assay type: cell-based; conditions: Acinetobacter johnsonii clinical strain 1; microdilution, Muller Hinton broth-cation adjusted, 0.02% BSA, 0.2% acetic acid
Method in brief: as §1

[11] = tested on: clinical strains of Pseudomonas aeruginosa; assay: MIC, clinical strains of P. aeruginosa; assay type: cell-based; design: unit: μg/ml; conditions: microdilution, Muller Hinton broth-cation adjusted, 0.02% BSA, 0.2% acetic acid
Method in brief: as §1

[12] = tested on: clinical strains of Staphylococcus aureus; assay: MIC, clinical strains of S. aureus; assay type: cell-based; design: unit: μg/ml; conditions: microdilution, Muller Hinton broth-cation adjusted, 0.02% BSA, 0.2% acetic acid
Method in brief: as §1

[13] = tested on: clinical strains of C. quillermondiae; assay: MIC, clinical yeast strains, C. quillermondiae; assay type: cell-based; conditions: C. quillermondiae clinical yeast strain 1
Method in brief: as §1

[14] = tested on: clinical strains of Klebsiella pneumoniae; assay: MIC, clinical strains of K. pneumoniae; assay type: cell-based; design: unit: μg/ml; conditions: microdilution, Muller Hinton broth-cation adjusted, 0.02% BSA, 0.2% acetic acid
Method in brief: as §1

`CC(C)C[C@@H](NC(=O)[C@H](N)CCCNC(=N)N)C(=O)N[C@H](CCCCN)C(=O)N[C@H](Cc1c[nH]c2ccccc12)C(=O)N[C@H](Cc1ccccc1)C(=O)N[C@H](CC(C)C)C(=O)N[C@H](CC(C)C)C(=O)N[C@H](Cc1ccccc1)C(=O)N[C@H](CCCNC(=N)N)C(=O)N[C@H](CCCCN)C(=O)N[C@H](CCCNC(=N)N)C(=O)O` [Chain308D] (H-[dR][dL][dK][dW][dF][dL][dL][dF][dR][dK][dR]-OH) was tested, and the Minimum inhibitory concentration ([1]; C. glabrata clinical yeast strain 1) was 16, the Minimum inhibitory concentration ([1]; C. glabrata clinical yeast strain 2) was 16 and the Minimum inhibitory concentration ([1]; C. glabrata clinical yeast strain 3) was 16. The Minimum inhibitory concentration ([1]; C. glabrata clinical yeast strain 4) was 16, the Minimum inhibitory concentration ([2]; C. parapsilosis clinical yeast strain 1) was 8 and the Minimum inhibitory concentration ([2]; C. parapsilosis clinical yeast strain 2) was 8. For the same molecule, the Minimum inhibitory concentration ([2]; C. parapsilosis clinical yeast strain 3) was 8, the Minimum inhibitory concentration ([2]; C. parapsilosis clinical yeast strain 4) was 4 and the Minimum inhibitory concentration ([3]; Escherichia coli clinical strain 1) was 1. For the same molecule, the Minimum inhibitory concentration ([3]; Escherichia coli clinical strain 2) was 0.5, the Minimum inhibitory concentration ([3]; Escherichia coli clinical strain 3) was 1 and the Minimum inhibitory concentration ([3]; Escherichia coli clinical strain 4) was 1. It also gave a Minimum inhibitory concentration ([3]; Escherichia coli clinical strain 5) of 1, a Minimum inhibitory concentration ([4]; Candida albicans clinical yeast strain 1) of 16 and a Minimum inhibitory concentration ([4]; Candida albicans clinical yeast strain 2) of 16. For the same molecule, the Minimum inhibitory concentration ([4]; Candida albicans clinical yeast strain 3) was 16, the Minimum inhibitory concentration ([4]; Candida albicans clinical yeast strain 4) was 16 and the Minimum inhibitory concentration ([4]; Candida albicans clinical yeast strain 5) was 16. For the same molecule, the Minimum inhibitory concentration ([5]; Serratia marcescens clinical strain 1) was 128, the Minimum inhibitory concentration ([5]; Serratia marcescens clinical strain 2) was 128 and the Minimum inhibitory concentration ([5]; Serratia marcescens clinical strain 3) was 64. For the same molecule, the Minimum inhibitory concentration ([5]; Serratia marcescens clinical strain 4) was greater than 128, the Minimum inhibitory concentration ([5]; Serratia marcescens clinical strain 5) was 128 and the Minimum inhibitory concentration ([6]; Enterobacter cloacae clinical strain 1) was 2. The Minimum inhibitory concentration ([6]; Enterobacter cloacae clinical strain 2) was 2, the Minimum inhibitory concentration ([6]; Enterobacter cloacae clinical strain 3) was 2 and the Minimum inhibitory concentration ([6]; Enterobacter cloacae clinical strain 4) was 2. It also gave a Minimum inhibitory concentration ([6]; Enterobacter cloacae clinical strain 5) of 2, a Minimum inhibitory concentration ([7]; Proteus mirabilis clinical strain 1) greater than 128 and a Minimum inhibitory concentration ([7]; Proteus mirabilis clinical strain 2) of 32. For the same molecule, the Minimum inhibitory concentration ([7]; Proteus mirabilis clinical strain 3) was 128, the Minimum inhibitory concentration ([7]; Proteus mirabilis clinical strain 4) was greater than 128 and the Minimum inhibitory concentration ([7]; Proteus mirabilis clinical strain 5) was greater than 128. It also gave a Minimum inhibitory concentration ([8]; Acinetobacter baumannii clinical strain 1) of 4, a Minimum inhibitory concentration ([8]; Acinetobacter baumannii clinical strain 2) of 4 and a Minimum inhibitory concentration ([8]; Acinetobacter baumannii clinical strain 3) of 4. It also gave a Minimum inhibitory concentration ([8]; Acinetobacter baumannii clinical strain 4) of 2, a Minimum inhibitory concentration ([8]; Acinetobacter baumannii clinical strain 5) of 2 and a Minimum inhibitory concentration ([9]; Streptococcus pneumoniae clinical strain 1) of 8. The Minimum inhibitory concentration ([9]; Streptococcus pneumoniae clinical strain 2) was 4, the Minimum inhibitory concentration ([9]; Streptococcus pneumoniae clinical strain 3) was 8 and the Minimum inhibitory concentration ([9]; Streptococcus pneumoniae clinical strain 4) was 2. The Minimum inhibitory concentration ([9]; Streptococcus pneumoniae clinical strain 5) was 4, the Minimum inhibitory concentration [10] was 4 and the Minimum inhibitory concentration ([11]; Pseudomonas aeruginosa clinical strain 1) was 8. The Minimum inhibitory concentration ([11]; Pseudomonas aeruginosa clinical strain 2) was 8, the Minimum inhibitory concentration ([11]; Pseudomonas aeruginosa clinical strain 3) was 4 and the Minimum inhibitory concentration ([11]; Pseudomonas aeruginosa clinical strain 4) was 4. For the same molecule, the Minimum inhibitory concentration ([11]; Pseudomonas aeruginosa clinical strain 5) was 4, the Minimum inhibitory concentration ([12]; Staphylococcus aureus clinical strain 1) was 1 and the Minimum inhibitory concentration ([12]; Staphylococcus aureus clinical strain 2) was 2. It also gave a Minimum inhibitory concentration ([12]; Staphylococcus aureus clinical strain 3) of 1, a Minimum inhibitory concentration ([12]; Staphylococcus aureus clinical strain 4) of 2 and a Minimum inhibitory concentration ([12]; Staphylococcus aureus clinical strain 5) of 2. It also gave a Minimum inhibitory concentration [13] of 4, a Minimum inhibitory concentration ([14]; Klebsiella pneumoniae clinical strain 1) of 4 and a Minimum inhibitory concentration ([14]; Klebsiella pneumoniae clinical strain 2) of 4. For the same molecule, the Minimum inhibitory concentration ([14]; Klebsiella pneumoniae clinical strain 3) was 4, the Minimum inhibitory concentration ([14]; Klebsiella pneumoniae clinical strain 4) was 4 and the Minimum inhibitory concentration ([14]; Klebsiella pneumoniae clinical strain 5) was 4.
